In brackets after ≈: the same amount, converted by molar mass. Activity calls are given as the source filed them. No cut-off for these calls is given here.
Assays:
[1] = test system: Mus musculus; experiment: In vivo inhibition of ER protein level in NOD SCID gamma mouse xenografted with human MCF7 cells at 5 mg, sc administered once in a week for 48 days post tumor implantation measured 7 hrs post last dose by Western blot method relative to control; type: functional
[2] = test system: Mus musculus; experiment: Downregulation of progesterone receptor mRNA level in NOD SCID gamma mouse xenografted with human MCF7 cells at 5 mg, sc administered once in a week for 48 days post tumor implantation measured 7 hrs post last dose by RT-PCR method; type: functional, organism-based
[3] = test system: MCF7; experiment: Antitumor activity against human MCF7 cells xenografted in NOD SCID gamma mouse assessed as change in tumor volume at 5 mg, sc administered once in a week for 48 days post tumor implantation measured 7 hrs post last dose; type: functional
[4] = target: T1, Estrogen receptor (Homo sapiens, UniProt P03372); experiment: Induction of selective estrogen receptor alpha degradation in human MCF7 cells harboring TK-ERE-Luc assessed as reduction in estradiol-induced transcriptional activity after 24 hrs by luciferase reporter gene assay; type: cell-based
T1 sequence (P03372 whole entry): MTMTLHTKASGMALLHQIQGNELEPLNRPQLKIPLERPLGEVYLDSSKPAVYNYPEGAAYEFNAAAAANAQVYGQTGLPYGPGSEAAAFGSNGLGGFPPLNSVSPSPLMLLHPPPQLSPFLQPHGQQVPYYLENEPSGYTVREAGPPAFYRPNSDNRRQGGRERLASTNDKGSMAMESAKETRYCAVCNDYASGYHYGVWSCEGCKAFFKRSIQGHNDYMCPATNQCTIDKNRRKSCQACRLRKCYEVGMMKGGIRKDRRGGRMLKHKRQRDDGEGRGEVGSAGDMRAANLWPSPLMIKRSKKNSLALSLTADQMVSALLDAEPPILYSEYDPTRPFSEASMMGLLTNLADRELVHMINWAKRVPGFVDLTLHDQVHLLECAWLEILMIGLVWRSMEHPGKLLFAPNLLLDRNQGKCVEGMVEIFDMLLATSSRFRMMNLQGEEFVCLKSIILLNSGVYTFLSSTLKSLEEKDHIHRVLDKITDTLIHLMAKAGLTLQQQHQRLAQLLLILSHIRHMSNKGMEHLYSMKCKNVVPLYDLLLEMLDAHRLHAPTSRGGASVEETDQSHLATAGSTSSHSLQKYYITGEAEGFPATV

[5] = Equilibrium solubility in pH 6.8 buffer at 1 mM after 16 hrs by HPLC based shake flask method; type: physicochemical
[6] = Clearance in C57BL/6 mouse at 1 mg/kg, iv or 3 mg/kg, po; type: ADME, organism-based; settings: in vivo
[7] = Oral bioavailability in C57BL/6 mouse at 3 mg/kg; type: ADME, organism-based; settings: in vivo
[8] = Cmax in C57BL/6 mouse at 3 mg/kg, po; type: ADME, organism-based; parameters: dose 3 mg/kg, route oral; settings: in vivo
[9] = test system: Rattus norvegicus; experiment: Dose normalized AUC (0 to t) in Sprague-Dawley rat at 1 mg/kg, iv; type: ADME, organism-based; settings: in vivo
[10] = test system: Canis familiaris; experiment: Clearance in Beagle dog at 0.3 mg/kg, iv or 10 mg/kg, po relative to hepatic blood flow; type: ADME, organism-based, Canis lupus familiaris; settings: in vivo
[11] = test system: Canis familiaris; experiment: Dose normalized AUC (0 to t) in Beagle dog at 10 mg/kg, po; type: ADME, organism-based, Canis lupus familiaris; settings: in vivo
[12] = test system: Canis familiaris; experiment: Dose normalized AUC (0 to t) in Beagle dog at 0.3 mg/kg, iv; type: ADME, organism-based, Canis lupus familiaris; settings: in vivo
[13] = test system: Canis familiaris; experiment: Dose normalized Cmax in Beagle dog at 30 mg/kg, po; type: ADME, organism-based, Canis lupus familiaris; settings: in vivo
[14] = Clearance in Sprague-Dawley rat at 1 mg/kg, iv or 3 mg/kg, po; type: ADME, organism-based; settings: in vivo
[15] = Elimination half life in Sprague-Dawley rat at 1 mg/kg, iv or 3 mg/kg, po; type: ADME, organism-based; settings: in vivo, read-out: beta t1/2 (converted)
[16] = Elimination half life in Beagle dog at 0.3 mg/kg, iv or 10 mg/kg, po; type: ADME, organism-based, Canis lupus familiaris; settings: in vivo, read-out: beta t1/2 (converted)
[17] = test system: Rattus norvegicus; experiment: Dose normalized Cmax in Sprague-Dawley rat at 3 mg/kg, po; type: ADME, organism-based; settings: in vivo
[18] = Volume of distribution at steady state in Beagle dog at 0.3 mg/kg, iv or 10 mg/kg, po; type: ADME, organism-based, Canis lupus familiaris; settings: in vivo, read-out: Vdss
[19] = test system: Rattus norvegicus; experiment: Dose normalized Cmax in Wistar Han rat at 30 mg/kg, po; type: ADME, organism-based; settings: in vivo
[20] = test system: Canis familiaris; experiment: Dose normalized AUC (0 to t) in Beagle dog at 30 mg/kg, po; type: ADME, organism-based, Canis lupus familiaris; settings: in vivo
[21] = Clearance in Beagle dog at 0.3 mg/kg, iv or 10 mg/kg, po; type: ADME, organism-based, Canis lupus familiaris; settings: in vivo
[22] = test system: Canis familiaris; experiment: Dose normalized Cmax in Beagle dog at 10 mg/kg, po; type: ADME, organism-based, Canis lupus familiaris; settings: in vivo
[23] = test system: Rattus norvegicus; experiment: Dose normalized Cmax in Wistar Han rat at 100 mg/kg, po; type: ADME, organism-based; settings: in vivo
[24] = test system: Rattus norvegicus; experiment: Dose normalized AUC (0 to t) in Wistar Han rat at 300 mg/kg, po; type: ADME, organism-based; settings: in vivo
[25] = test system: Rattus norvegicus; experiment: Dose normalized AUC (0 to t) in Wistar Han rat at 30 mg/kg, po; type: ADME, organism-based; settings: in vivo
[26] = test system: Mus musculus; experiment: Downregulation of progesterone receptor mRNA level in NOD SCID gamma mouse xenografted with human MCF7 cells at 20 mg/kg, po qd for 48 days post tumor implantation measured 7 hrs post last dose by RT-PCR method; type: functional, organism-based
[27] = AUC in Beagle dog at 10 mg/kg, po; type: ADME, organism-based, Canis lupus familiaris; settings: in vivo
[28] = test system: Mus musculus; experiment: In vivo inhibition of ER protein level in NOD SCID gamma mouse xenografted with human MCF7 cells at 20 mg/kg, po qd for 48 days post tumor implantation measured 7 hrs post last dose by Western blot method relative to control; type: functional
[29] = test system: Rattus norvegicus; experiment: Dose normalized Cmax in Wistar Han rat at 300 mg/kg, po; type: ADME, organism-based; settings: in vivo
[30] = test system: MCF7; experiment: Antitumor activity against human MCF7 cells xenografted in NOD SCID gamma mouse assessed as change in tumor volume at 20 mg/kg, po qd for 48 days post tumor implantation measured 7 hrs post last dose; type: functional
[31] = Volume of distribution at steady state in Sprague-Dawley rat at 1 mg/kg, iv or 3 mg/kg, po; type: ADME, organism-based; settings: in vivo, read-out: Vdss
[32] = test system: Rattus norvegicus; experiment: Dose normalized AUC (0 to t) in Wistar Han rat at 100 mg/kg, po; type: ADME, organism-based; settings: in vivo
[33] = Oral bioavailability in Beagle dog at 10 mg/kg; type: ADME, organism-based, Canis lupus familiaris; settings: in vivo
[34] = test system: Rattus norvegicus; experiment: Dose normalized AUC (0 to t) in Sprague-Dawley rat at 3 mg/kg, po; type: ADME, organism-based; settings: in vivo
[35] = test system: MCF7; experiment: Antiproliferative activity against human MCF7 cells after 6 days in presence of estradiol by CellTiter-Glo assay; settings: MCF7, 144 h
[36] = Cmax in NOD SCID gamma mouse xenografted with human MCF7 cells at 20 mg/kg, po qd for 19 days; type: ADME, organism-based; parameters: dose 20 mg/kg, route oral; settings: in vivo
[37] = Oral bioavailability in Sprague-Dawley rat at 3 mg/kg; type: ADME, organism-based; settings: in vivo
[38] = AUC in NOD SCID gamma mouse xenografted with human MCF7 cells at 20 mg/kg, po qd for 19 days; type: ADME, organism-based; settings: in vivo
[39] = test system: MCF7; experiment: Antitumor activity against human MCF7 cells xenografted in NOD SCID gamma mouse assessed as change in tumor volume at 60 mg/kg, po 5 days per week for 48 days post tumor implantation measured 7 hrs post last dose; type: functional
[40] = test system: Mus musculus; experiment: Downregulation of progesterone receptor mRNA level in NOD SCID gamma mouse xenografted with human MCF7 cells at 60 mg/kg, po 5 days per week for 48 days post tumor implantation measured 7 hrs post last dose by RT-PCR method; type: functional, organism-based

C[C@]12CC[C@@H]3c4ccc(O)cc4C[C@@H](CCCCCCCCC[S+]([O-])CCCC(F)(F)C(F)(F)F)[C@H]3[C@@H]1CC[C@@H]2O (stereo partly specified) [FULVESTRANT]
inhibition (INH) [1]: 67% | Activity [2]: Active | T/C [3]: 24%

Oc1ccc(-c2sc3cc(O)ccc3c2Oc2ccc(/C=C/c3nnn[nH]3)cc2)cc1
IC50 [4]: 219 nM | solubility thermodynamic at 16 h, 1000 µM [5]: 190 µM (≈ 81.4 µg/mL)

O=C(/C=C/c1ccc(Oc2c(-c3ccc(O)cc3)sc3cc(O)ccc23)cc1)NCCC(F)(F)F
solubility thermodynamic at 16 h, 1000 µM [5]: < 5 µM

CC/C(=C(/c1ccc(/C=C/C(=O)O)cc1)c1ccc2[nH]ncc2c1)c1ccc(F)cc1Cl [BRILANESTRANT]
clearance [6]: 16 mL/min/kg | bioavailability [7]: 42% | Cmax [8]: 1240 nM

CC(F)(F)c1cc(F)ccc1-c1sc2cc(O)ccc2c1Oc1ccc(/C=C/C(=O)O)cc1 [LSZ-102]
AUCt/dose [9]: 1849 nM·h | CL [10]: 15% | AUCt/dose [11]: 962 nM·h | AUCt/dose [12]: 7713 nM·h | Cmax/dose [13]: 123 nM | clearance [14]: 19 mL/min/kg | half-life [15]: 1.4 h | half-life [16]: 4.1 h | Cmax/dose [17]: 240 nM | Vd [18]: 0.3 L/kg | Cmax/dose [19]: 1259 nM | AUCt/dose [20]: 624 nM·h | clearance [6]: 28 mL/min/kg | clearance [21]: 5 mL/min/kg | Cmax/dose [22]: 268 nM | Cmax/dose [23]: 513 nM | AUCt/dose [24]: 3405 nM·h | AUCt/dose [25]: 2117 nM·h | Activity [26]: Active | AUC [27]: 9.62 µM·h | inhibition in vivo at 20 mg/kg [28]: 63% | Cmax/dose [29]: 334 nM | T/C [30]: 2.4% | Vd [31]: 0.9 L/kg | bioavailability [7]: 12% | AUCt/dose [32]: 1940 nM·h | bioavailability [33]: 12% | AUCt/dose [34]: 620 nM·h | Cmax [8]: 492 nM | IC50 [35]: 1.7 nM | Cmax [36]: 1070 nM | bioavailability [37]: 33% | AUC at 456 h [38]: 3.23 µM·h

Cc1cc(-c2sc3cc(O)ccc3c2Oc2ccc(/C=C/C(=O)O)cc2)ccc1O
clearance [6]: 46 mL/min/kg | bioavailability [7]: 2% | Cmax [8]: 46 nM

CC/C(=C(\c1ccc(O)cc1)c1ccc(OCCN(C)C)cc1)c1ccccc1 [AFIMOXIFENE]
IC50 [35]: 9.9 nM

CC/C(=C(\c1ccccc1)c1ccc(OCCN(C)C)cc1)c1ccccc1 [TAMOXIFEN]
T/C [39]: 24% | Activity [40]: Active

Cn1cnc(/C=C/c2ccc(Oc3c(-c4ccc(O)cc4)sc4cc(O)ccc34)cc2)c1
solubility thermodynamic at 16 h, 1000 µM [5]: 9 µM (≈ 3.96 µg/mL)

O=C(/C=C/c1ccc(Oc2c(-c3ccc(O)cc3)sc3cc(O)ccc23)cc1)NCCO
solubility thermodynamic at 16 h, 1000 µM [5]: 11 µM (≈ 4.92 µg/mL)

Oc1ccc(-c2sc3cc(O)ccc3c2Oc2ccc(/C=C/c3c[nH]cn3)cc2)cc1
solubility thermodynamic at 16 h, 1000 µM [5]: < 5 µM

Source: ChEMBL document CHEMBL4020850, “Discovery of LSZ102, a Potent, Orally Bioavailable Selective Estrogen Receptor Degrader (SERD) for the Treatment of Estrogen Receptor Positive Breast Cancer” (J Med Chem, 2018)
